{"source": "patent US7838539B2", "about": "“Nicotine receptor agonists in stem cell and progenitor cell recruitment” (priority 1999, dated 2010)", "key": {"[1]": {"tested_on": "fibrovascular growth into the disc (index of angiogenesis)", "test": "Disc angiogenesis system (DAS)", "type": "in vivo, C57BL/6J mice", "conditions": "for angiogenesis in comparison to vehicle: agent in disc pellet: bFGF 20 mcg, Del-1 0.2 M, nicotine 10^-6 M; for effect on nicotine-induced fibrovascular growth: oral indomethacin 20 mcg/ml or LNNA 6 mg/ml", "description": "To study whether nicotine induces angiogenesis in vivo, we employed the disc angiogenesis system (DAS) (Kowalski et al. (1992) Exp Mol Pathol 56(1):1-19; Fajardo et al. (1998) Lab Invest 58:718-7244).\nPreparation of the disc The DAS consisted of a disc (11 mm in diameter and 1 mm thickness) made of a polyvinyl alcohol sponge (Kanebo PVA, Rippey Co., Santa Clara, Calif.). Both sides were covered with nitrocellulose cell-impermeable filters (Millipore filters, 0.45 μm in pore diameter, Millipore, SF, Calif.) of the same diameter as the sponge disc, fixed to the sponge using Millipore glue #1 (xx70000.00, Millipore). As a result, cells (and thus vessels) could penetrate or exit only through the rim of the disc (Kowalski et al. (1992) Exp Mol Pathol 56(1):1-19; Fajardo et al. (1998) Lab Invest 58:718-7244).\nIn order to study the local effect of nicotine on angiogenesis, nicotine was placed in a pellet which was added directly to the disc. Briefly, a 1.5-mm core (pellet) was cut from the disc center. Both the pellets and discs were sterilized prior to assembly in a laminar flow hood. The pellet was loaded with up to 20 mcl (μl) of the nicotine solution and subsequently air-dried. We placed in the disc pellets with either vehicle (PBS, Sigma, Chemical Co., St Louis, Mo., n=5) or nicotine (10^-6 M, Aldrich Chemical Company, Milwaukee, Wis., n=5) to study the effects of locally administered nicotine. For comparison, in some cases basic fibroblast growth factor (bFGF; 20 mcg) or Del-1 protein (0.2 M) was added to the pellet, rather than nicotine. Both bFGF and Del-1 are known to induce angiogenesis. The pellet was then coated with ethylene-vinyl acetate co-polymer (Elvax, Dupont, Chemcentral Corp., Chicago, Ill.) which would permit slow release of the nicotine from the pellet into the disc. The pellet was then re-inserted into the disc before sealing the disc with the millipore filters.\nTo study the systemic effects of nicotine, in some cases the animals were administered nicotine in their drinking water (see below).\nImplantation of the disc The mice were anesthetized with 4% chloralhydrate [intraperitoneal administration (i.p.), 0.1 cc/10 g body weight]. The flanks and posterior surface of the thorax were shaved and cleaned with saturated 70% isopropyl alcohol. A 2-cm incision was made in the skin of the flank contra-lateral to the implantation site. Blunt dissection through the subcutaneous tissue produced a channel into which the saline moistened disc was inserted. The skin was closed with 5.0 silk suture (Kowalski et al. (1992) Exp Mol Pathol 56(1):1-19; Fajardo et al. (1998) Lab Invest 58:718-7244).\nDisc removal and preparation Two weeks after disc implantation, the mice were sacrificed with an overdose of 4% chloral hydrate (i.p.) and cervical dislocation. A careful incision was made next to the skin overlying the implanted disc, and the disc was gently removed from the implantation site. Attached tissue was carefully detached from the disc. After removing the disc, one filter was separated from the disc. Discs were then fixed in 10% formalin and embedded flat in paraffin. Subsequently, 5 μm sections were made in a plane through the center of the disc and parallel to the disc surface.\nQuantitation of results The disc sections were stained with H&E for light microscopy and histomorphometric measurement of radial growth, and stained with toluidine blue for quantitative determination of total area of fibrovascular growth. Using a video microscope and a computer assisted digital image analysis system (NIH Image 1.59b9), the entire area of fibrovascular growth in the toluidine blue stained disc was calculated and expressed in mm^2. As described in a previous study, total fibrovascular growth area is directly proportional to the total area of the disc occupied by blood vessels (Kowalski et al. (1992) Exp Mol Pathol 56(1):1-19; Fajardo et al. (1998) Lab Invest 58:718-7244)."}, "[2]": {"tested_on": "endothelial progenitor cells (EPCs)", "conditions": "nicotine 0.1 g/L drinking water, 3 weeks after ischemia", "excerpt": "In order to further examine the role of nicotine in induction of angiogenesis, the recruitment of endothelial progenitor cells was studied.\nParabiotic mouse pairs were created to investigate the mobilization and incorporation of precursors to vessel formation in normal and ischemic conditions using a hind limb ischemia model of angiogenesis (as described above), and the effect of nicotine. The parabiotic partners were selected so that they shared all major histocompatibility antigens, and were therefore free of immunological barriers to cell migration and angiogenesis. Assaying for genetic markers unique to one animal of the pair (e.g., the Y chromosome where the pair is made up of a female mouse and a male mouse) provides for unambiguous cell tracking between the mice. The model is further optimized by the use of a second genetic marker to differential the individuals (e.g., a transgene present in one partner and not the other), thus increasing the sensitivity and the accuracy of the identification of the origin of single cells. […]"}, "[3]": {"tested_on": "capillary density in hindlimb muscle", "experimental": "Mice were anesthetized with 4% chloral hydrate [intraperitoneal administration (i.p.), 0.1 cc/10 g body weight). The medial surface of both hind limbs were shaved and then cleaned with betadine solution. A 1.5-cm longitudinal incision was performed, extending from the knee to the inguinal ligament. Through this incision, the superficial femoral artery was dissected free along its length. After the distal ends of both the external iliac and superficial femoral arteries were ligated with 7.0 (Ethicon), complete excision of the femoral artery was performed. An additional set of mice underwent sham operation. The incisions were then closed with discontinuous stitches of 5.0 silk suture (Ethicon). Ampicillin (1 mg/10 gm body weight) intraperitoneal injection was administered after surgical procedure.\nTissue Preparation. Three weeks after surgery, mice were euthanized with an overdose of 4% chloral hydrate (i.p) and cervical dislocation, and the adductor and semimembranous muscles were collected for capillary density assessment. Briefly, a longitudinal incision in the medial thigh was made to expose the entire hindlimb muscle. The adductor and semimembranous muscles were removed and immediately frozen in OCT. Subsequently, sections 5 μm were taken from the mid-region of each muscle in a transverse orientation. The sections were air dried and fixed in acetone.\nCapillary Densitometry. Immunohistochemistry was performed using an alkaline phosphatase assay to identify the endothelial cells. An eosin counterstain was used to differentiate myocytes. Capillaries and myocytes were identified and counted using light microscopy (20×). For each section, four different fields were selected and the total number of capillaries and myocytes per field determined. These values were averaged to provide a determination of capillary density for each experimental limb. To ensure that value for capillary density was not overestimated due to muscle atrophy, or underestimated due to interstitial edema, capillary density was expressed as a ratio of capillaries to myocytes present in the same field.\nDaily intramuscular injections of nicotine solution or vehicle were administered (50 μl) for a period of three weeks."}, "in vivo": {"test": "in vivo", "conditions": "C57B16j, mouse, plasma, oral, 100 μg/ml in drinking water", "experimental": "(§1) Mice (C57B16j) were given solution containing vehicle (0.4% saccharine in distilled water) or nicotine (100 μg/ml) ad libitum in their drinking water. After 6 weeks, peripheral blood, bone marrow and spleen were harvested. Cell counts were obtained in the blood, spleen and bone marrow, and bone marrow cells were isolated for fluorescent activated cell sorting (FACS). To detect hematopoietic stem cells (HSCs), fluorescently labeled antibodies directed against the following antigens were used: Lineage antigens (CD3,4,5, and 8; B220; Gr1, Mac1 and Ter119), cKit, Sca 1, and Flk2. HSCs were conventionally defined as Lin−, cKit+, Sca1+, and […]. All cells were stained with PI (propidium iodide) to separate live from dead cells."}, "hematopoietic stem cells": {"tested_on": "hematopoietic stem cells", "conditions": "100 μg/ml in drinking water, 6 weeks", "experimental": "as §1"}, "[4]": {"conditions": "highest intramuscular dose (3.2 μg/kg daily, three weeks)"}}, "note": "Where two headings read alike, the source gives them in different places."}
{"molecule": "bFGF: basic fibroblast growth factor, known to induce angiogenesis; comparison agent in the disc pellet", "values": [{"measurement": "angiogenesis in comparison to vehicle", "setting": "[1]", "result": "increased angiogenesis to the same degree"}]}
{"molecule": "NC(=NCCC[C@H](N)C(=O)O)N[N+](=O)[O-]", "note": "[LNNA, L, nitro-arginine]", "values": [{"measurement": "effect on nicotine-induced fibrovascular growth", "setting": "[1]; local nicotine in disc", "result": "blocked"}, {"measurement": "effect on nicotine-induced fibrovascular growth", "setting": "[1]; systemic nicotine", "result": "blocked"}]}
{"molecule": "COc1ccc2c(c1)c(CC(=O)O)c(C)n2C(=O)c1ccc(Cl)cc1", "note": "[indomethacin]", "values": [{"measurement": "effect on nicotine-induced fibrovascular growth", "setting": "[1]; local nicotine in disc", "result": "blocked"}, {"measurement": "effect on nicotine-induced fibrovascular growth", "setting": "[1]; systemic nicotine", "result": "blocked"}]}
{"molecule": "CN1CCC[C@H]1c1cccnc1", "note": "[nicotine, S-3-(1-methyl-2-pyrrolidinyl)pyridine]", "values": [{"measurement": "number of vessels", "setting": "[2]", "result": "significant increase"}, {"measurement": "percentage of vessels that incorporated EPC", "setting": "[2]; saline group 1.6%, P<0.001", "result": 7.3, "unit": "%"}, {"measurement": "angiogenesis in comparison to vehicle", "setting": "[1]", "result": "increased angiogenesis to the same degree"}, {"measurement": "angiogenesis with systemic nicotine compared with locally administered bFGF and Del-1", "setting": "[1]; systemic nicotine in drinking water", "result": "enhanced angiogenesis to a much greater degree"}, {"measurement": "angiogenic effect of systemic compared with local nicotine administration", "setting": "[1]; systemic versus local nicotine", "result": "greater than local nicotine administration"}, {"measurement": "capillary density in the ischemic limb", "setting": "[3]; 0.03 μg/kg intramuscular daily for three weeks, vehicle control 0.35", "result": 0.67, "unit": "capillaries/myocyte"}, {"measurement": "angiogenic effect, dose dependence", "setting": "[3]; higher intramuscular doses", "result": "less angiogenesis is observed"}, {"measurement": "angiogenesis in the ischemic limb", "setting": "[3]; [4]", "result": "angiogenesis was not increased"}, {"measurement": "toxicity at injection site", "setting": "[3]; [4]", "result": "some toxicity was observed, with evidence of interstitial edema and myocyte necrosis"}, {"measurement": "angiogenic effect, dose dependence", "setting": "[3]; intermediate intramuscular doses", "result": "greatest effect"}, {"measurement": "angiogenic effect in non-ischemic hindlimbs", "setting": "[3]; intramuscular nicotine in the ischemic limb, untreated non-ischemic limb", "result": "no angiogenic effect was detected"}, {"measurement": "concentration at 6 weeks", "setting": "in vivo", "result": 87, "unit": "ng/mL"}, {"measurement": "appearance of mice at the time of sacrifice", "setting": "hematopoietic stem cells", "result": "appeared healthy"}, {"measurement": "cellularity of the bone marrow", "setting": "hematopoietic stem cells", "result": "increased"}, {"measurement": "cellularity of the spleen", "setting": "hematopoietic stem cells", "result": "increased"}, {"measurement": "peripheral white blood cell count", "setting": "hematopoietic stem cells", "result": "elevated"}, {"measurement": "hematopoietic stem cells (kit/sca+ cells) in bone marrow", "setting": "hematopoietic stem cells; FACS", "result": "significant increase"}, {"measurement": "long term HSCs (self-renewing cells) in bone marrow", "setting": "hematopoietic stem cells; FACS", "result": "equal increases"}, {"measurement": "short term HSCs in bone marrow", "setting": "hematopoietic stem cells; FACS", "result": "an increase"}]}
{"molecule": "Del1: Del-1 protein, known to induce angiogenesis; comparison agent in the disc pellet (protein, UniProt O43854 24-480, looked up) EGF-like repeat and discoidin …: DICDPNPCENGGICLPGLADGSFSCECPDGFTDPNCSSVVEVASDEEEPTSAGPCTPNPCHNGGTCEISEAYRGDTFIGYVCKCPRGFNGIHCQHNINECEVEPCKNGGICTDLVANYSCECPGEFMGRNCQYKCSGPLGIEGGIISNQQITASSTHRALFGLQKWYPYYARLNKKGLINAWTAAENDRWPWIQINLQRKMRVTGVITQGAKRIGSPEYIKSYKIAYSNDGKTWAMYKVKGTNEDMVFRGNIDNNTPYANSFTPPIKAQYVRLYPQVCRRHCTLRMELLGCELSGCSEPLGMKSGHIQDYQITASSIFRTLNMDMFTWEPRKARLDKQGKVNAWTSGHNDQSQWLQVDLLVPTKVTGIITQGAKDFGHVQFVGSYKLAYSNDGEHWTVYQDEKQRKDKVFQGNFDNDTHRKNVIDPPIYARHIRILPWSWYGRITLRSELLGCTEEE", "values": [{"measurement": "angiogenesis in comparison to vehicle", "setting": "[1]", "result": "increased angiogenesis to the same degree"}]}
